Measured values as given in BindingDB's records for patent US12303509 (Pfizer, 2025).

Molecular target: Serine/threonine-protein kinase B-raf [V600E] (Homo sapiens, UniProt P15056, V600E)
Assay: BRAF V600E Enzyme Assay
Description: A competitive displacement assay was configured for B-Raf that monitors the amount of a fluorescently-tagged “tracer” bound to B-Raf via TR-FRET from an anti-tag Eu-labeled antibody also bound to B-Raf. For full-length FLAG-tagged B-Raf(V600E), the assay mixtures consisted of 25 mM K+HEPES, pH 7.4, 10 mM MgCl2, 0.01% Triton X-100, 1 mM DTT, 2% DMSO (from compound), 50 nM Tracer 1710 (ThermoFisher, PR9176A), 0.5 nM Eu anti-FLAG (M2)-cryptate Ab (Cisbio, 61FG2KLB) and 5 nM full-length, N-terminally FLAG-tagged B-Raf(V600E) (Origene Technologies, TP700031. Compounds were typically diluted in DMSO across an 11-point dosing range created using a 3-fold serial dilution protocol at a top dose of 10 μM. The assay was run in 384-well, polystyrene, low-volume, non-treated, white microtiter plates (Costar 4512) in a final volume of 12 μL. Low control wells included 1 μM of a potent B-Raf inhibitor as a control. The assays were incubated at ambient temperature (typically 22° C.) for 60 min and then read on a PerkinElmer EnVision microplate reader using standard TRF settings (λEx=320 nm, λEm=615 & 665 nm).

Sequence of Serine/threonine-protein kinase B-raf [V600E] (P15056 2-766 V600E limits assumed): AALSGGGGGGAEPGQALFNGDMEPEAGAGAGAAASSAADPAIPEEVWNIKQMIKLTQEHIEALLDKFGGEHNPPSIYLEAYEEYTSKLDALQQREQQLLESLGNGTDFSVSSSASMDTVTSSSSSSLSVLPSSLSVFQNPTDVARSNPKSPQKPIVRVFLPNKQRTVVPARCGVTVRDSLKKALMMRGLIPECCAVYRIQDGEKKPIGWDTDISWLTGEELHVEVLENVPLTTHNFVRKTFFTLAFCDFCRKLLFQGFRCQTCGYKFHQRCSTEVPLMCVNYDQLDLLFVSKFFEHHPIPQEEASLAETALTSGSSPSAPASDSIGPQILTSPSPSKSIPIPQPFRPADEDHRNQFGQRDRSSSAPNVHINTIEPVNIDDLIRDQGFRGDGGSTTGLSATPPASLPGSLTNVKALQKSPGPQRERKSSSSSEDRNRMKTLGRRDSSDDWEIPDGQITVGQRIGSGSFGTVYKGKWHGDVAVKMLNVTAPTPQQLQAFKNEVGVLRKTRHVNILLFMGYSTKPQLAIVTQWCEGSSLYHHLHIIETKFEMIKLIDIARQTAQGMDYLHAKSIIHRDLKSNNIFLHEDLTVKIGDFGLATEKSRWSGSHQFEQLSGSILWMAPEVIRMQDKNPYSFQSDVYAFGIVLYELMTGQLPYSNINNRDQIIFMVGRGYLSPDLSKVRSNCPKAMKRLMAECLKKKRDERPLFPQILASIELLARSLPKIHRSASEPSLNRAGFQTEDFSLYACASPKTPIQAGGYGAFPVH

IC50	SMILES
8 nM	Cn1cnc2ccc(Nc3c(F)ccc(NS(=O)(=O)N4CC(OC(F)F)C4)c3Cl)c(Cl)c2c1=O [US12303509, Example 143]
7 nM	Cc1c(Nc2c(F)ccc(NS(=O)(=O)N3CC(C)(F)C3)c2Cl)ccc2ncn(C)c(=O)c12 [US12303509, Example 155]
29 nM	Cc1c(Nc2c(F)ccc(NS(=O)(=O)N3CC4(CCC4)C3)c2Cl)ccc2ncn(C)c(=O)c12 [US12303509, Example 157]
